The values that follow come from article PMC3483115 (The Journal of General Physiology, 2012).

Ends that are not written are not given here. MBP = maltose-binding protein (N-terminal fusion)

In assay [1] the target is T1, Ca^2+–CaM (Homo sapiens, UniProt P0DP23). The assay can be described thus: SEC-based comparison of Ca^2+–CaM affinity, TRPV1-ARD vs. TRPV1-CT. The assay is classed as binding. The following applies: suggested by SEC; affinity could not be measured. In general terms: Size exclusion chromatography separates by hydrodynamic size, large species first.
Assay [2] has as its system TRPV1 K155A. The assay is classed as cell-based, rat. The following applies: repeated 1 µM capsaicin, whole cell, extracellular Ca^2+.
Assay [3] deals with TRPV1 K155A. The following applies: ref Lishko et al., 2007; cited from earlier work.
In assay [4] the target is T1, Ca^2+–CaM. The following applies: ref Lishko et al., 2007; cited from earlier work.
Assay [5] addresses T1, Ca^2+–CaM. As to the kind of experiment: CaM-agarose pulldown of MBP-fused TRPV1-CT35 peptides. The assay is classed as binding. The following applies: CaM-agarose pulldown (Fig. S2), pH 7.5, 1 mM CaCl2 or EGTA, 4°C, 1 h.
The test system of another assay is TRPV1. The following applies: ref Liu et al., 2005, Lishko et al., 2007, Lukacs et al.; cited from earlier work.
Another assay has as its system CaM. As to the kind of experiment: SEC of TRPV1-CT peptides mixed with CaM. It is filed as binding. The following applies: Superdex 75, in the presence of Ca^2+, data shown for TRPV1-CT44.

For the compound “TRPV1-ARD: N-terminal ankyrin repeat domain of TRPV1 (rat or chicken)”, the “affinity of TRPV1-ARD for Ca^2+–CaM relative to TRPV1-CT” value with Ca^2+–CaM [1] is “the affinity is likely significantly lower than that of the TRPV1-CT”.

For the compound `COc1cc(CNC(=O)CCCC/C=C/C(C)C)ccc1O` [capsaicin], the “tachyphylaxis and activation kinetics, K155A TRPV1” value with TRPV1 K155A [2] was “little tachyphylaxis and slower activation kinetics”. Besides, in the assay on TRPV1 K155A [3], the “capsaicin sensitivity of K155A TRPV1” value is reported as “normal capsaicin sensitivity”.

As to “K155A: TRPV1 with mutation K155A in the TRPV1-ARD”, the “Ca^2+–CaM binding to TRPV1-ARD with mutation” value with Ca^2+–CaM [4] is “abolish Ca^2+–CaM binding to TRPV1-ARD”.

“L796P ({MBP}-EGVKRTLSFSLRSGRVSGRNWKNFALVPLPRDAST)”: in the assay with Ca^2+–CaM [5], the “Ca^2+–CaM binding of L796P MBP-TRPV1-CT35 (pulldown)” value was “did not significantly disrupt binding of TRPV1-CT35 to Ca^2+–CaM”.

For the compound “phosphatidylinositol-4,5-bisphosphate [PIP2]”, the “effect of PIP2 on TRPV1” value in the assay with TRPV1 is “can also potentiate TRPV1”.

As for “TRPV1-CT35: 35-residue CaM-binding peptide from the TRPV1-CT (residues 767–801) (EGVKRTLSFSLRSGRVSGRNWKNFALVPLLRDAST; left off: MBP, N-terminal, cleaved)”, the “shift in elution volume with CaM” value with CaM is “undergo a large shift in elution volume when mixed with CaM in the presence of Ca^2+, confirming that a complex is formed”.
